From patent US8741897B2, “Glucocorticoid mimetics, methods of making them, pharmaceutical compositions and uses thereof” (Boehringer Ingelheim Pharmaceuticals Inc., priority 2003, dated 2014)

Key:
[1] = test system: glucocorticoid receptor function; assay: one or more of the above assays (GR binding and glucocorticoid receptor cell assays: aromatase, IL-6, TAT, MMTV-Luc, IL-8, ICAM-Luc); assay type: cell-based; details: assay not specified per compound
[2] = biological target: T1, human glucocorticoid receptor (GR) complex (Homo sapiens, UniProt P04150); assay: Glucocorticoid receptor competitive binding assay (fluorescence polarization, TAMRA-labeled dexamethasone probe); details: compounds of Formula (IA)
T1 construct: made in house; host or cells: insect expression system (baculovirus lysate)
T1 sequence (P04150 1-777): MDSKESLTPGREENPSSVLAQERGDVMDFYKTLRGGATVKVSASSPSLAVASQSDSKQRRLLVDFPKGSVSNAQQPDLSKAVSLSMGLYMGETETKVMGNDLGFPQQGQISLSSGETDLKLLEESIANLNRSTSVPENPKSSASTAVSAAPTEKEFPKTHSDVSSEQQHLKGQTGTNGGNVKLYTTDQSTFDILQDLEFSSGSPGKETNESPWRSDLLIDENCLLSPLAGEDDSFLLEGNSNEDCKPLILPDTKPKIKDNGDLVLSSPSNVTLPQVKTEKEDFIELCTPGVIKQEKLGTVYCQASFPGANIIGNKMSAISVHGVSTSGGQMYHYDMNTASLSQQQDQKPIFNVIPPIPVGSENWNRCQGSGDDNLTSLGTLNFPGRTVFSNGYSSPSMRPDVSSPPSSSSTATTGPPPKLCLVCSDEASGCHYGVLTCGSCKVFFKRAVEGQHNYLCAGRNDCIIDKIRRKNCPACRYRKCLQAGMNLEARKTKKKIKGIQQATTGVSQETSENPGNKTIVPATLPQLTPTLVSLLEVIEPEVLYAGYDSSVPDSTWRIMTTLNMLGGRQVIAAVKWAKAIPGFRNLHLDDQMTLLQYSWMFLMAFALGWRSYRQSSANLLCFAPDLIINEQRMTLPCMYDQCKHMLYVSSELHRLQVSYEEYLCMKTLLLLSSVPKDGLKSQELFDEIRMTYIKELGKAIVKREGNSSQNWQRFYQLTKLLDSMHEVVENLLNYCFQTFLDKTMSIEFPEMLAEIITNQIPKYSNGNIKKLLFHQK
Outline: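 Fluorescence-polarization competition against 15 nM TAMRA-dexamethasone (stock added to the mix) for human GR complex from baculovirus lysate diluted 1:170. Buffer: 10 mM TES, 50 mM KCl, 20 mM Na2MoO4, 1.5 mM EDTA, 0.04% CHAPS, 10% glycerol, 1 mM DTT, pH 7.4. IC50 from 4-parameter logistic fit.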

Row | activity in the GR binding assay [2] | SMILES | activity as agonists of the glucocorticoid receptor function in one or more of the above assays [1]
1 | potent activity | COc1ccc(F)cc1C(C)(C)CC(O)(Cc1cc2cc(C(=O)NCC(N)=O)ccc2[nH]1)C(F)(F)F (stereo not shown) [2-[4-(5-Fluoro-2-methoxyphenyl)-2-hydroxy-4-methyl-2-trifluoromethylpentyl]-1H-indole-5-carboxylic acid carbamoylmethylamide] | potent agonists
2 | potent activity | Cc1cc2[nH]c(CC(O)(CC(C)(C)c3cc(F)ccc3C)C(F)(F)F)cc2cn1 (stereo not shown) [1,1,1-Trifluoro-4-(5-fluoro-2-methylphenyl)-4-methyl-2-(6-methyl-1H-pyrrolo[3,2-c]pyridin-2-ylmethyl)pentan-2-ol] | potent agonists
3 | potent activity | CC(C)(CC(O)(Cc1ccnc2ccccc12)C(F)(F)F)c1cccc(Cl)c1 (stereo not shown) [4-(3-Chlorophenyl)-1,1,1-trifluoro-4-methyl-2-quinolin-4-ylmethylpentan-2-ol] | potent agonists
4 | potent activity | Cc1cc(C)c(O)c(C(C)(C)CC(O)(Cc2[nH]c3ccccc3c2C#N)C(F)(F)F)c1 (stereo not shown) [2-[2-Hydroxy-4-(2-hydroxy-3,5-dimethylphenyl)-4-methyl-2-trifluoromethylpentyl]-1H-indole-3-carbonitrile] | potent agonists
5 | potent activity | Cc1cc2c(c(C(C)(C)CC(O)(Cc3cc4cnccc4[nH]3)C(F)(F)F)c1)OCC2 (stereo not shown) [1,1,1-Trifluoro-4-methyl-4-(5-methyl-2,3-dihydrobenzofuran-7-yl)-2-(1H-pyrrolo[3,2-c]pyridin-2-ylmethyl)pentan-2-ol] | potent agonists
6 | potent activity | Cc1cc(CC(O)(CC(C)(C)c2cccc3c2OCC3)C(F)(F)F)cc(C)n1 (stereo not shown) [4-(2,3-Dihydrobenzofuran-7-yl)-2-(2,6-dimethylpyridin-4-ylmethyl)-1,1,1-trifluoro-4-methylpentan-2-ol] | potent agonists
7 | potent activity | COc1ccc(F)cc1C(C)(C)CC(O)(Cc1cc2c(OC)ncnc2[nH]1)C(F)(F)F (stereo not shown) [1,1,1-Trifluoro-4-(5-fluoro-2-methoxyphenyl)-2-(4-methoxy-7H-pyrrolo[2,3-d]pyrimidin-6-ylmethyl)-4-methylpentan-2-ol] | potent agonists
8 | potent activity | CC(C)(CC(O)(Cc1ccnc(Br)c1)C(F)(F)F)c1cc(F)ccc1O (stereo not shown) [2-[3-(2-Bromopyridin-4-ylmethyl)-4,4,4-trifluoro-3-hydroxy-1,1-dimethylbutyl]-4-fluorophenol] | potent agonists
9 | potent activity | COc1ccc(F)cc1C(C)(C)CC(O)(Cc1cc2cc(Cl)ncc2[nH]1)C(F)(F)F (stereo not shown) [1,1,1-Trifluoro-4-(5-fluoro-2-methoxyphenyl)-2-(5-chloro-1H-pyrrolo[2,3-c]pyridin-2-ylmethyl)-4-methylpentan-2-ol] | potent agonists
10 | potent activity | COc1ccc(F)cc1C(C)(C)CC(O)(Cc1cc2cnccc2[nH]1)C(F)F (stereo not shown) [1,1-Difluoro-4-(5-fluoro-2-methoxyphenyl)-4-methyl-2-(1H-pyrrolo[3,2-c]pyridin-2-ylmethyl)pentan-2-ol] | potent agonists
11 | potent activity | CC(C)(CC(O)(Cc1cc2ccncc2[nH]1)C(F)(F)F)c1cc(Cl)cc2c1OCC2 (stereo not shown) [4-(5-Chloro-2,3-dihydrobenzofuran-7-yl)-1,1,1-trifluoro-4-methyl-2-(1H-pyrrolo[2,3-c]pyridin-2-ylmethyl)pentan-2-ol] | potent agonists
12 | potent activity | Cc1ccc(C(C)(C)CC(O)(Cc2ccnc3ccccc23)C(F)(F)F)cc1C (stereo not shown) [4-(3,4-Dimethylphenyl)-1,1,1-trifluoro-4-methyl-2-quinolin-4-ylmethylpentan-2-ol] | potent agonists
13 | potent activity | COc1ccc(F)cc1C(C)(C)CC(O)(Cc1cc2ncncc2[nH]1)C(F)(F)F (stereo not shown) [1,1,1-Trifluoro-4-(5-fluoro-2-methoxyphenyl)-4-methyl-2-(5H-pyrrolo[3,2-d]pyrimidin-6-ylmethyl)pentan-2-ol] | potent agonists
14 | potent activity | COc1ccc(F)cc1C(C)(C)CC(O)(Cc1cc2c(C)nc(C)nc2[nH]1)C(F)(F)F (stereo not shown) [2-(2,4-Dimethyl-7H-pyrrolo[2,3-d]pyrimidin-6-ylmethyl)-1,1,1-trifluoro-4-(5-fluoro-2-methoxyphenyl)-4-methylpentan-2-ol] | potent agonists
15 | potent activity | COc1ccc(F)cc1C(C)(C)CC(O)(c1c(F)ccc2c(C)ccnc12)C(F)(F)F (stereo not shown) [1,1,1-Trifluoro-4-(5-fluoro-2-methoxyphenyl)-2-(7-fluoro-4-methylquinolin-8-yl)-4-methylpentan-2-ol] | potent agonists
16 | potent activity | CC(C)(CC(O)(Cc1ccnc2ccccc12)C(F)(F)F)c1ccccc1C(F)(F)F (stereo not shown) [1,1,1-Trifluoro-4-methyl-2-quinolin-4-ylmethyl-4-(2-trifluoromethylphenyl)pentan-2-ol] | potent agonists
17 | potent activity | Cc1cc(C#N)cc2[nH]c(CC(O)(CC(C)(C)c3cc(Br)cc4c3OCC4)C(F)(F)F)cc12 (stereo not shown) [2-[4-(5-Bromo-2,3-dihydrobenzofuran-7-yl)-2-hydroxy-4-methyl-2-trifluoromethylpentyl]-4-methyl-1H-indole-6-carbonitrile] | potent agonists
18 | potent activity | Cc1cc(CC(O)(CC(C)(C)c2ccc(F)cc2O)C(F)(F)F)cc(C)n1 (stereo not shown) [2-[3-(2,6-Dimethylpyridin-4-ylmethyl)-4,4,4-trifluoro-3-hydroxy-1,1-dimethylbutyl]-5-fluorophenol] | potent agonists
19 | potent activity | COc1ccc(F)cc1C(C)(C)CC(O)(Cc1cc2cc(C(=O)N3CCC(O)C3)ccc2[nH]1)C(F)(F)F (stereo not shown) [{2-[4-(5-Fluoro-2-methoxyphenyl)-2-hydroxy-4-methyl-2-trifluoromethylpentyl]-1H-indol-5-yl}(3-hydroxypyrrolidin-1-yl)methanone] | potent agonists
20 | potent activity | Cc1ccc(F)cc1C(C)(C)CC(O)(Cc1cc2nc(C#N)ccc2[nH]1)C(F)(F)F (stereo not shown) [2-[4-(5-Fluoro-2-methylphenyl)-2-hydroxy-4-methyl-2-trifluoromethylpentyl]-1H-pyrrolo[3,2-b]pyridine-5-carbonitrile] | potent agonists
21 | potent activity | Cc1cc(C(C)(C)CC(O)(Cc2cc3ccccc3[nH]2)C(F)(F)F)ccc1F (stereo not shown) [1,1,1-Trifluoro-4-(4-fluoro-3-methylphenyl)-2-(1H-indol-2-ylmethyl)-4-methylpentan-2-ol] | potent agonists
22 | potent activity | COc1cc2cc(CC(O)(CC(C)(C)c3cc(F)ccc3C)C(F)(F)F)[nH]c2cn1 (stereo not shown) [1,1,1-Trifluoro-4-(5-fluoro-2-methylphenyl)-2-(5-methoxy-1H-pyrrolo[2,3-c]pyridin-2-ylmethyl)-4-methylpentan-2-ol] | potent agonists
23 | potent activity | COc1ccc(F)cc1C(C)(C)CC(O)(Cc1cc2ccnc(F)c2[nH]1)C(F)(F)F (stereo not shown) [1,1,1-Trifluoro-4-(5-fluoro-2-methoxyphenyl)-2-(7-fluoro-1H-pyrrolo[2,3-c]pyridin-2-ylmethyl)-4-methylpentan-2-ol] | potent agonists
